Source: paper PMC7279487, “Dual Target Ligands with 4-tert-Butylphenoxy Scaffold as Histamine H3 Receptor Antagonists and Monoamine Oxidase B Inhibitors” (International Journal of Molecular Sciences, 2020)
Structures can show the parent of a compound that is named as a salt.

Experiments:
hMAO B = target: T1, hMAO B (Homo sapiens, UniProt P27338); test: hMAO B inhibition, fluorometric Amplex Red MAO assay; format: biochemical; conditions: percent of inhibition at 1 μM; mean of two independent experiments; read-out: MAO B (%Inh.)
T1 construct: purchased Sigma Aldrich M7441
T1 sequence (P27338 1-520): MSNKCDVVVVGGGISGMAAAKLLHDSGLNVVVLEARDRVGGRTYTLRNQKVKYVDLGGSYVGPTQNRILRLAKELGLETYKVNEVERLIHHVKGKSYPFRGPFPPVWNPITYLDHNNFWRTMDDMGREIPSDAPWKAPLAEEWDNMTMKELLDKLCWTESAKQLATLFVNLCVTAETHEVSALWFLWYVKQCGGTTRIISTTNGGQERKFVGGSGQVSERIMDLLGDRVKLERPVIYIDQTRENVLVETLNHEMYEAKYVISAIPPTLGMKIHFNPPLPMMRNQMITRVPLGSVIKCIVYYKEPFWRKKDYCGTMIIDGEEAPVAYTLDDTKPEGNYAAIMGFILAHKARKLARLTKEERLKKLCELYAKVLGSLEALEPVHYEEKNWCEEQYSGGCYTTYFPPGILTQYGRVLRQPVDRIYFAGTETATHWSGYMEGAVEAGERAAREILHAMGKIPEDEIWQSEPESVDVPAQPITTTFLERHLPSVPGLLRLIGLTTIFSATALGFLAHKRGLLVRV

[1] = target: T2, human histamine H3 receptor (hH3R) (Homo sapiens, UniProt Q9Y5N1); test: radioligand displacement binding assay, [3H]Nα-methylhistamine, HEK293 cells stably expressing hH3R; conditions: HEK293 cells stably expressing human H3R, mean (95% CI)
T2 construct: expressed in transfected cells
T2 sequence (Q9Y5N1 whole entry): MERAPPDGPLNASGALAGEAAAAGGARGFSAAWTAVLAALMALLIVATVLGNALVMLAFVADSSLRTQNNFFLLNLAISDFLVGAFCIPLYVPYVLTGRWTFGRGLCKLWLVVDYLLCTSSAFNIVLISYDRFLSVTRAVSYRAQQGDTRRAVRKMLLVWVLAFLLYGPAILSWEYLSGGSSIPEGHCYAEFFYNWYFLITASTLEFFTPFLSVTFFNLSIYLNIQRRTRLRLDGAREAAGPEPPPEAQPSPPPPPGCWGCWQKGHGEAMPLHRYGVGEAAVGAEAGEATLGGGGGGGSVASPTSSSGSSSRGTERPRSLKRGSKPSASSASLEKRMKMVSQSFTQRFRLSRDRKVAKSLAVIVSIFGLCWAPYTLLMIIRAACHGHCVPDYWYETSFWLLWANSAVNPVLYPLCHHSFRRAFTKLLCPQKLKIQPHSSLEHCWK
Description: [^3H]N^α-methylhistamine was used as a radioligand.
The radioligand displacement binding assay was carried out in HEK-293 cells stably expressing the recombinant hH3R as described by Kottke et al. with slight modifications. […] Obtained data from at least three experiments (in at least duplicates) were analyzed with GraphPad Prism 6.1 (San Diego, CA, USA) using nonlinear regression (one-site competition on logarithmic scale), and Ki values were transformed from IC50 according to Cheng-Prusoff. Statistical analysis was performed on −log Ki values.

[2] = system: haloperidol-induced catalepsy; test: haloperidol-induced catalepsy, crossed-leg position test; format: in vivo, Wistar rats; conditions: mean ± SEM (n = 6)
Description: (§1) Haloperidol (dopamine D2 antagonist)-induced catalepsy in rodents is a popular model for screening of antiparkinsonian activity of compounds [21]. Caused symptoms in animals are similar to the inability of PD patients to initiate movements. […] The reversal of catalepsy was tested for 6 min (3 times in 3 min intervals) after 1 h of haloperidol administration. As the reference compound was used MSX-3, the adenosine A2A receptor antagonist with confirmed ability to reverse catalepsy mediated by D1 and D2 receptor antagonists.
(§2) The experiments were carried out on male rats Wistar (180–220 g). Animals were housed in plastic cages in room at a constant temperature of 20 ± 2 °C with natural light–dark cycles. The animals had free access to standard pellet diet and water and were used after a minimum of 3 days of acclimatization to the housing conditions. Control and experimental groups consisted of 6 animals each. All experimental procedures were performed according to the European Union Directive of 22 September 2010 (2010/63/EU) and Polish legislation concerning animal care and use and was approved by the Local Ethics Committee for Experiments on Animals in Kraków, Poland (Resolution No. 70/2014, approval date: 20 May 2014). The examined compound was administered as the suspension in 0.5% methylcellulose in constant volume of 10 mL/kg.
(§3) Antiparkinsonian activity in catalepsy tests was performed as described in [28]. Haloperidol was administered s.c. at a dose of 0.63 mg/kg, which in 100% of control animals caused catalepsy. Tested compounds were administered i.p. at the doses 50 and 25 mg/kg body weight, 5 min after haloperidol injection. After 60 min from the injection of haloperidol, to assess the occurrence of catalepsy, the animals were placed in a forced position and the time they remained in this position was measured. Two tests were performed to determine the antiparkinsonian activity: crossed leg position test and bar test. In the first test, the animals were put on the hind paws behind the front (forced position); in the second, the animals were supported on a wooden block (the front paws were placed on a block suspended 10 cm above the ground). Then, the time that the animals remain is measured in a forced position (time was measured to a maximum of 60 s). Observation was carried out 3 times in 3-min intervals. The shortening of the time of catalepsy to the control group was adopted for the antiparkinsonian activity.

[3] = system: haloperidol-induced catalepsy; test: haloperidol-induced catalepsy, bar test; format: in vivo, Wistar rats; conditions: mean ± SEM (n = 6)
Description: as §1
Haloperidol-induced catalepsy was not reduced by DL-76 administrated at a dose of 25 mg/kg body weight (Table 3). After administration of DL-76 at a dose of 50 mg/kg body weight, low antiparkinsonian activity in the bar test was observed. […] This effect was weaker than the anti-Parkisonian activity of MSX-3.
as §2, §3

SMILES: CC(C)(C)c1ccc(OCCCCCN2CCCCC2)cc1.O=C(O)C(=O)O [Compound 7, 1-(5-(4-tert-Butylphenoxy)pentyl)piperidine hydrogen oxalate]
- inhibition at 1 µM (hMAO B): 28%
- Ki [1]: 252 nM
- melting point: 170 to 172 °C

SMILES: CC(C)(C)c1ccc(OCCCCCCN2CCCCC2)cc1.O=C(O)C(=O)O [Compound 8, 1-(6-(4-tert-Butylphenoxy)hexyl)piperidine hydrogen oxalate]
- inhibition at 1 µM (hMAO B): 13%
- Ki [1]: 225 nM
- melting point: 156 to 158 °C

SMILES: CC1CCCCN1CCCCCOc1ccc(C(C)(C)C)cc1.O=C(O)C(=O)O (stereo not drawn) [Compound 11, 1-(5-(4-tert-Butylphenoxy)pentyl)-2-methylpiperidine hydrogen oxalate]
- inhibition at 1 µM (hMAO B): 36%
- Ki [1]: 1560 nM
- melting point: 96 to 99 °C

SMILES: CC1CCCN(CCCCOc2ccc(C(C)(C)C)cc2)C1.O=C(O)C(=O)O (stereo not drawn) [Compound 13, 1-(4-(4-tert-Butylphenoxy)butyl)-3-methylpiperidine hydrogen oxalate]
- Ki [1]: 102 nM
- melting point: 148 to 150 °C

SMILES: CC1CCCN(CCCCCOc2ccc(C(C)(C)C)cc2)C1.O=C(O)C(=O)O (stereo not drawn) [Compound 14, 1-(5-(4-tert-Butylphenoxy)pentyl)-3-methylpiperidine hydrogen oxalate]
- inhibition at 1 µM (hMAO B): 33%
- Ki [1]: 114 nM
- melting point: 179 to 181 °C

SMILES: CC1CCCN(CCCCCCOc2ccc(C(C)(C)C)cc2)C1.O=C(O)C(=O)O (stereo not drawn) [Compound 15, 1-(6-(4-tert-Butylphenoxy)hexyl)-3-methylpiperidine hydrogen oxalate]
- inhibition at 1 µM (hMAO B): 13%
- Ki [1]: 351 nM
- melting point: 140 to 142 °C

SMILES: CC1(C)CCCN(CCCCOc2ccc(C(C)(C)C)cc2)C1.O=C(O)C(=O)O [Compound 17, 1-(4-(4-tert-Butylphenoxy)butyl)-3,3-dimethylpiperidine hydrogen oxalate]
- inhibition at 1 µM (hMAO B): 38%
- Ki [1]: 3440 nM
- melting point: 140 to 142 °C

SMILES: CC1CC(C)CN(CCCOc2ccc(C(C)(C)C)cc2)C1.O=C(O)C(=O)O (stereo not drawn) [Compound 20, 1-(3-(4-tert-Butylphenoxy)propyl)-3,5-dimethylpiperidine hydrogen oxalate]
- inhibition at 1 µM (hMAO B): 37%
- Ki [1]: 341 nM
- melting point: 143 to 145 °C

SMILES: CC1CC(C)CN(CCCCOc2ccc(C(C)(C)C)cc2)C1.O=C(O)C(=O)O (stereo not drawn) [Compound 21, 1-(4-(4-tert-Butylphenoxy)butyl)-3,5-dimethylpiperidine hydrogen oxalate]
- inhibition at 1 µM (hMAO B): 35%
- Ki [1]: 1380 nM
- melting point: 170 to 172 °C

SMILES: CC1CC(C)CN(CCCCCOc2ccc(C(C)(C)C)cc2)C1.O=C(O)C(=O)O (stereo not drawn) [Compound 22, 1-(5-(4-tert-Butylphenoxy)pentyl)-3,5-dimethylpiperidine hydrogen oxalate]
- inhibition at 1 µM (hMAO B): 41%
- Ki [1]: 2240 nM
- melting point: 175 to 178 °C

SMILES: CC1CC(C)CN(CCCCCCOc2ccc(C(C)(C)C)cc2)C1.O=C(O)C(=O)O (stereo not drawn) [Compound 23, 1-(6-(4-tert-Butylphenoxy)hexyl)-3,5-dimethylpiperidine hydrogen oxalate]
- inhibition at 1 µM (hMAO B): 34%
- Ki [1]: 2080 nM
- melting point: 143 to 145 °C

SMILES: CC1CCN(CCCOc2ccc(C(C)(C)C)cc2)CC1.O=C(O)C(=O)O [Compound 24, 1-(3-(4-tert-Butylphenoxy)propyl)-4-methylpiperidine hydrogen oxalate]
- inhibition at 1 µM (hMAO B): 37%
- Ki [1]: 316 nM
- melting point: 158 to 160 °C

SMILES: CC1CCN(CCCCOc2ccc(C(C)(C)C)cc2)CC1 [Compound 25, 1-(4-(4-tert-Butylphenoxy)butyl)-4-methylpiperidine hydrogen oxalate]
- inhibition at 1 µM (hMAO B): 33%
- Ki [1]: 400 nM

SMILES: CC1CCN(CCCCCOc2ccc(C(C)(C)C)cc2)CC1.O=C(O)C(=O)O [Compound 26, 1-(5-(4-tert-Butylphenoxy)pentyl)-4-methylpiperidine hydrogen oxalate]
- inhibition at 1 µM (hMAO B): 39%
- Ki [1]: 531 nM
- melting point: 167 to 170 °C

SMILES: CC1CCN(CCCCCCOc2ccc(C(C)(C)C)cc2)CC1.O=C(O)C(=O)O [Compound 27, 1-(6-(4-tert-Butylphenoxy)hexyl)-4-methylpiperidine hydrogen oxalate]
- inhibition at 1 µM (hMAO B): 10%
- Ki [1]: 1350 nM
- melting point: 136 to 139 °C

SMILES: CC(C)(C)c1ccc(OCCCCCN2CCCCCC2)cc1.O=C(O)C(=O)O [Compound 30, 1-(5-(4-tert-Butylphenoxy)pentyl)-azepane hydrogen oxalate]
- inhibition at 1 µM (hMAO B): 18%
- Ki [1]: 324 nM
- melting point: 151 to 153 °C

SMILES: CC(C)(C)c1ccc(OCCCCCCN2CCCCCC2)cc1.O=C(O)C(=O)O [Compound 31, 1-(6-(4-tert-Butylphenoxy)hexyl)-azepane hydrogen oxalate]
- inhibition at 1 µM (hMAO B): 23%
- melting point: 130 to 132 °C

SMILES: C#CCn1c(=O)c2c(nc(/C=C/c3cccc(OC)c3)n2C)n(CCCOP(=O)(O)O)c1=O.[Na].[Na] [MSX-3, (E)-phosphoric acid mono-[3-[8-[2-(3-methoxyphenyl)vinyl]-7-methyl-2,6-dioxo-1-prop-2-ynyl-1,2,6,7-tetrahydro-purin-3-yl]propyl] ester disodium salt, reference compound]
- Times of Observation of Catalepsy (s), 0 min ([2]; 25 mg/kg): 0 ± 0 s
- Times of Observation of Catalepsy (s), 3 min ([2]; 25 mg/kg): 0 ± 0 s
- Times of Observation of Catalepsy (s), 6 min ([2]; 25 mg/kg): 0 ± 0 s
- Times of Observation of Catalepsy (s), 0 min ([2]; 50 mg/kg): 0 ± 0 s
- Times of Observation of Catalepsy (s), 3 min ([2]; 50 mg/kg): 0 ± 0 s
- Times of Observation of Catalepsy (s), 6 min ([2]; 50 mg/kg): 0 ± 0 s
- Times of Observation of Catalepsy (s), 0 min ([3]; 25 mg/kg i.p.): 0 ± 0 s
- Times of Observation of Catalepsy (s), 3 min ([3]; 25 mg/kg i.p.): 0 ± 0 s
- Times of Observation of Catalepsy (s), 6 min ([3]; 25 mg/kg i.p.): 0 ± 0 s
- Times of Observation of Catalepsy (s), 0 min ([3]; 50 mg/kg i.p.): 0 ± 0 s
- Times of Observation of Catalepsy (s), 3 min ([3]; 50 mg/kg i.p.): 0 ± 0 s
- Times of Observation of Catalepsy (s), 6 min ([3]; 50 mg/kg i.p.): 0 ± 0 s
